Experimental data published in ChEMBL document CHEMBL1201862, “PubChem BioAssay data set” (2004).
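Test compounds were applied to cells in 96-well plates for 48 hours at 5 doses. Abbreviation: GI50, concentration required for 50% inhibition of growth.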 Calls of active or inactive are those of the source. No stated cut-off is given here; in the data, active = GI50 up to about 1.1 µM and inactive = higher.

Key:
Experiment in all cases: NCI tumour cell line growth inhibition, 48 h
[1] = system: 786-0
[2] = system: A498
[3] = system: A549
[4] = system: ACHN
[5] = system: CAKI-1
[6] = system: CCRF-CEM
[7] = system: DLD-1
[8] = system: DMS-114
[9] = system: EKVX
[10] = system: HCC 2998
[11] = system: HCT-116
[12] = system: HCT-15
[13] = system: HOP-18
[14] = system: HOP-62
[15] = system: HOP-92
[16] = system: HT-29
[17] = system: IGROV-1
[18] = system: K562
[19] = system: KM-20L2
[20] = system: KM12
[21] = system: LOX IMVI
[22] = system: LXFL 529
[23] = system: M14
[24] = system: M19-MEL
[25] = system: MOLT-4
[26] = system: Malme-3M
[27] = system: NCI-H226
[28] = system: NCI-H23
[29] = system: NCI-H460
[30] = system: NCI-H522
[31] = system: OVCAR-3
[32] = system: OVCAR-4
[33] = system: OVCAR-5
[34] = system: OVCAR-8
[35] = system: RXF 631
[36] = system: SF-268
[37] = system: SF-295
[38] = system: SF-539
[39] = system: SK-MEL-28
[40] = system: SK-MEL-2
[41] = system: SK-MEL-5
[42] = system: SK-OV-3
[43] = system: SN12C
[44] = system: SNB-75
[45] = system: SNB-78
[46] = system: SW-620
[47] = system: TK-10
[48] = system: U-251
[49] = system: UACC-257
[50] = system: UACC-62
[51] = system: UO-31
[52] = system: COLO 205
[53] = system: DMS-273
[54] = system: HL-60
[55] = system: RPMI-8226
[56] = system: RXF 393
[57] = system: SNB-19
[58] = system: SR

COc1c(C)c(O)c2c(=O)cc(-c3ccccc3)oc2c1C
GI50 [1]: > 100 µM (inactive) | GI50 [2]: > 100 µM (inactive) | GI50 [3]: > 100 µM (inactive) | GI50 [4]: > 100 µM (inactive) | GI50 [5]: > 100 µM (inactive) | GI50 [6]: > 100 µM (inactive) | GI50 [7]: > 100 µM (inactive) | GI50 [8]: > 100 µM (inactive) | GI50 [9]: > 100 µM (inactive) | GI50 [10]: > 100 µM (inactive) | GI50 [11]: > 100 µM (inactive) | GI50 [12]: > 100 µM | GI50 [13]: > 100 µM (inactive) | GI50 [14]: > 100 µM (inactive) | GI50 [15]: > 100 µM (inactive) | GI50 [16]: > 100 µM (inactive) | GI50 [17]: > 100 µM (inactive) | GI50 [18]: > 100 µM (inactive) | GI50 [19]: > 100 µM (inactive) | GI50 [20]: > 100 µM (inactive) | GI50 [21]: > 100 µM (inactive) | GI50 [22]: > 100 µM (inactive) | GI50 [23]: > 100 µM (inactive) | GI50 [24]: > 100 µM (inactive) | GI50 [25]: > 100 µM (inactive) | GI50 [26]: > 100 µM (inactive) | GI50 [27]: > 100 µM (inactive) | GI50 [28]: > 100 µM (inactive) | GI50 [29]: > 100 µM (inactive) | GI50 [30]: > 100 µM (inactive) | GI50 [31]: > 100 µM (inactive) | GI50 [32]: > 100 µM (inactive) | GI50 [33]: > 100 µM (inactive) | GI50 [34]: > 100 µM (inactive) | GI50 [35]: > 100 µM (inactive) | GI50 [36]: > 100 µM (inactive) | GI50 [37]: > 100 µM (inactive) | GI50 [38]: > 100 µM (inactive) | GI50 [39]: > 100 µM (inactive) | GI50 [40]: > 100 µM (inactive) | GI50 [41]: > 100 µM (inactive) | GI50 [42]: > 100 µM (inactive) | GI50 [43]: > 100 µM (inactive) | GI50 [44]: > 100 µM (inactive) | GI50 [45]: > 100 µM (inactive) | GI50 [46]: > 100 µM (inactive) | GI50 [47]: > 100 µM (inactive) | GI50 [48]: > 100 µM (inactive) | GI50 [49]: > 100 µM (inactive) | GI50 [50]: > 100 µM (inactive) | GI50 [51]: > 100 µM (inactive)

CCOC(=O)C(=O)Nc1ccc(C)c(C)c1
GI50 [1]: > 100 µM (inactive) | GI50 [2]: > 100 µM (inactive) | GI50 [3]: > 100 µM (inactive) | GI50 [4]: > 100 µM (inactive) | GI50 [5]: > 100 µM (inactive) | GI50 [6]: > 100 µM (inactive) | GI50 [52]: 17.1 µM (inactive) | GI50 [7]: > 100 µM (inactive) | GI50 [8]: > 40.9 µM (inactive) | GI50 [53]: 34.8 µM (inactive) | GI50 [9]: > 100 µM (inactive) | GI50 [10]: > 100 µM (inactive) | GI50 [11]: > 84.7 µM (inactive) | GI50 [12]: > 41.2 µM | GI50 [54]: > 54.8 µM (inactive) | GI50 [14]: > 100 µM (inactive) | GI50 [16]: > 56.2 µM (inactive) | GI50 [17]: > 100 µM (inactive) | GI50 [18]: > 73.1 µM (inactive) | GI50 [19]: > 100 µM (inactive) | GI50 [20]: > 53.8 µM (inactive) | GI50 [21]: > 56.1 µM (inactive) | GI50 [22]: > 86.9 µM (inactive) | GI50 [23]: > 100 µM (inactive) | GI50 [24]: > 67.5 µM (inactive) | GI50 [25]: > 100 µM (inactive) | GI50 [26]: > 100 µM (inactive) | GI50 [27]: > 100 µM (inactive) | GI50 [28]: > 100 µM (inactive) | GI50 [29]: > 60.4 µM (inactive) | GI50 [30]: > 100 µM (inactive) | GI50 [32]: > 100 µM (inactive) | GI50 [33]: > 100 µM (inactive) | GI50 [55]: > 100 µM (inactive) | GI50 [56]: > 100 µM (inactive) | GI50 [35]: > 100 µM (inactive) | GI50 [36]: > 100 µM (inactive) | GI50 [37]: > 100 µM (inactive) | GI50 [38]: > 100 µM (inactive) | GI50 [39]: > 100 µM (inactive) | GI50 [40]: > 100 µM (inactive) | GI50 [41]: > 100 µM (inactive) | GI50 [42]: > 100 µM (inactive) | GI50 [43]: > 100 µM (inactive) | GI50 [57]: > 100 µM (inactive) | GI50 [44]: > 100 µM (inactive) | GI50 [45]: > 100 µM (inactive) | GI50 [58]: < 0.01 µM (active) | GI50 [46]: 5.81 µM (inactive) | GI50 [47]: > 100 µM (inactive) | GI50 [48]: > 100 µM (inactive) | GI50 [49]: > 100 µM (inactive) | GI50 [50]: > 100 µM (inactive) | GI50 [51]: > 100 µM (inactive)
